The values that follow come from ChEMBL document CHEMBL1130385, “Synthesis and biological activities of conformationally restricted, tricyclic nonclassical antifolates as inhibitors of dihydrofolate reductases” (J Med Chem, 1997).

Assay [1] has as its target T1, Dihydrofolate reductase (Rattus norvegicus, UniProt Q920D2).
T1 sequence (Q920D2 whole entry): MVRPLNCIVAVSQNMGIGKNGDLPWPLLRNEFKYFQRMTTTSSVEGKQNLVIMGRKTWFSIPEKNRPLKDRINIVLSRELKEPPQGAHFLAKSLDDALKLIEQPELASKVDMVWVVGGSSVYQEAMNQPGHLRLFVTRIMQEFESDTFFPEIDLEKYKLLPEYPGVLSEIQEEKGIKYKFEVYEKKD
Description: Inhibitory concentration against Rat liver Dihydrofolate reductase

The target of assay [2] is T2, Bifunctional dihydrofolate reductase-thymidylate synthase (Toxoplasma gondii, UniProt Q07422).
T2 sequence (Q07422 whole entry): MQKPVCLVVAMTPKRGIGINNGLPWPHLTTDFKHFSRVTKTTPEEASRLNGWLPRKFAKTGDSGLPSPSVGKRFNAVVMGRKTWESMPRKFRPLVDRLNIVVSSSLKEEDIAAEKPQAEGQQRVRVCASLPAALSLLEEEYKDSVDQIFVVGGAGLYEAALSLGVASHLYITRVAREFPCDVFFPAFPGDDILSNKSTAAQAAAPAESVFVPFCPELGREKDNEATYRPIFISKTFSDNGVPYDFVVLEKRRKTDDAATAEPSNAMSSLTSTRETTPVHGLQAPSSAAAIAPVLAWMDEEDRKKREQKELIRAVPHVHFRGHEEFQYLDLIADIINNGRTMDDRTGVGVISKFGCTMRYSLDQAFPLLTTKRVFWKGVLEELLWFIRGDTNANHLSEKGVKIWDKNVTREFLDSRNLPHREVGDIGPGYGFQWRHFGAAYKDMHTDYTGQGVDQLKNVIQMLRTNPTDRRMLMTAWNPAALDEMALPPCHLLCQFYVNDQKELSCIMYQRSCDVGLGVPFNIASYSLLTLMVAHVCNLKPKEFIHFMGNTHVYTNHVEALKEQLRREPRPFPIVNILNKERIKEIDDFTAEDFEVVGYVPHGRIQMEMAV
Description: Inhibitory concentration against Toxoplasma gondii Dihydrofolate reductase.

Assay [3] has as its target T3, Dihydrofolate reductase (Pneumocystis carinii, UniProt P16184).
T3 sequence (P16184 whole entry): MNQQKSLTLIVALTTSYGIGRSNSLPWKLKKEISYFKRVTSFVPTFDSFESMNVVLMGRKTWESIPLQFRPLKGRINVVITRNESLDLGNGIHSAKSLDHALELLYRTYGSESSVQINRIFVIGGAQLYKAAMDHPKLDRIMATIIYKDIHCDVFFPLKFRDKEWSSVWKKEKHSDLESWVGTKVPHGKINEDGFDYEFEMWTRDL
Description: Inhibitory concentration against Pneumocystis carinii Dihydrofolate reductase

Structures are written as SMILES.

For the compound `COc1cc(N2C=C3C(=O)N=c4nc(N)nc(N)c4=C3CC2)cc(OC)c1OC`, the IC50 (usually the concentration needed to halve the response being measured) on Dihydrofolate reductase [1] worked out at 240 nM; in assay [2] it was 1120 nM.
For `COc1cc(N2CCC3c4c(N)nc(N)nc4NCC3C2)cc(OC)c1OC` (centres undefined) the same measures were 160 nM and 290 nM.
In turn, `COc1c(Cl)c(-n2ccc3c4c(N)nc(N)nc4nc(=O)c-3c2)c(Cl)c(OC)c1OC` had an IC50 against Dihydrofolate reductase [1] of 500 nM.
Consider `COc1cc(N2CCc3c(cnc4nc(N)nc(N)c34)C2)cc(OC)c1OC`, for which the results for the IC50 against Dihydrofolate reductase [3] and against Dihydrofolate reductase [1] were over 2270 nM and over 2700 nM, respectively.
With `COc1cc(-n2ccc3c4c(N)nc(N)nc4nc(=O)c-3c2)cc(OC)c1OC`, the IC50 at Dihydrofolate reductase [3] amounted to 2400 nM; against Dihydrofolate reductase [1], 86 nM; in assay [2] it was 520 nM.
In the case of `COc1cc(N2C=Cc3c(cnc4nc(N)nc(N)c34)C2)cc(OC)c1OC`, the IC50 against Dihydrofolate reductase [1] turned out to be 470 nM; in assay [2], 760 nM.
Regarding `COc1cc(N2CCc3c(c(=O)[nH]c4nc(N)nc(N)c34)C2)cc(OC)c1OC`, the IC50 against Dihydrofolate reductase [3] and at Dihydrofolate reductase [1] was over 5000 nM each time.
